According to patent US11065336B2, “Conjugates for targeting and clearing aggregates” (MedImmune Limited, priority 2018, dated 2021):
Ends that are not written are not given here.

Legend:
[1] = test system: amyloid proteins (hen lysozyme (hLys), human full-length alpha synuclein, human tau P301S); experiment: fluorometric assay of binding to amyloid proteins; details: 30 μM reporter solution in PBS; excitation 450 nm, emission 460-680 nm; compared to amyloid-free control
Procedure: The binding of BDB to various amyloid proteins was evaluated in vitro using a fluorometric assay.
The amyloid proteins (hen lysozyme (hLys), human full-length alpha synuclein, and human tau P301S) were individually prepared for use in the fluorometric assay. hLys (Sigma) was dissolved in 136.8 mM NaCl, 2.68 mM KCl, 0.01% w/v NaN3, pH 2 at a concentration of 1.45 mg/ml and incubated at 55° C. for 24 h in an orbital shaker at 150 rpm. Human full length alpha synuclein (Alexotech) was dissolved in 150 mM NaCl, 1% v/v triton-x100 in PBS at a concentration of 2.2 mg/ml and incubated at 37° C. for 72 h in an orbital shaker at 250 rpm. Human tau P301S was incubated at 8 mg/ml with 4 mg/ml heparin (Sigma) in PBS, 30 mM 3-(N-morpholino) propanesulfonic acid (MOPS) (pH 7.2) at 37° C. for 72 h. […]
The binding of the BDB to amyloid was detected using a fluorometric assay. The amyloid binding was detected with the use of one of three fluorescent reporters solutions (30 μM BDB, cp33 peptide (Bonetto S et al. FASEB J. 2009; 23(2):575-85) or Thioflavin T (ThT) (Sigma) solution, in PBS). […] An Envision plate reader was set to excite at 450 nm and measure emission within the range 460-680 nm. The corresponding fluorescence signals of the reporter solutions were subtracted from the experimental data.

[2] = test system: U937 cells treated with IFNγ; experiment: FACS binding to activated and non-activated U937 cells; format: cell-based; details: 10 μM BDB or 1 μM biotinylated human IgG1; 4° C., 1 h
Procedure: (§1) In order to determine the binding affinity of BDB to activated phagocytic cells, activated and non-activated U937 cells or murine primary macrophages were resuspended in the presence of BDB, biotinylated human IgG1, or PBS. The cells were then stained using either AF488-streptavidin conjugate, APC-Cy7 dead/live stain, or dead/live stain only and measured using fluorescence activated cell sorting (FACS).
(§2) Specifically, U937 cells were cultured in RPMI 1640+2 mM Glutamine+10% v/v foetal bovine serum (FCS) for 48 h in the absence or presence of […] human IFNγ (Thermo Fisher Scientific). Murine primary macrophages were cultured for 48 h in the absence or presence of 100 μg/ml LPS (Sigma). Aliquots of 5×10^5 cells were centrifuged 3 min at 300 g and resuspended either in 50 μl of 10 μM BDB, 1 μM biotinylated human IgG1 or PBS. Samples were incubated at 4° C. for 1 h and then centrifuged for 3 min at 100 g. Cells were resuspended in 50 μl of either AF488-streptavidin conjugate (Thermo Fisher Scientific, 1:500 in PBS) with APC-Cy7 dead/live stain (Thermo Fisher Scientific, 1:2000 in PBS) or dead/live stain only. Samples were incubated at 4° C. for 30 min and then centrifuged for 3 min at 100 g. Samples were washed with 200 μl cold PBS and resuspended in 250 μl PBS for analysis using a FACS Canto II, with 10^4 events recorded per condition. […]

[3] = test system: murine primary macrophages treated with LPS; experiment: FACS binding to activated and non-activated murine primary macrophages; format: cell-based; details: 10 μM BDB or 1 μM biotinylated human IgG1; 4° C., 1 h
Procedure: as §1, §2

[4] = test system: IFNγ-activated U937 cells; experiment: titrating BDB and IgG1 binding to IFNg stimulated U937 cells (FACS); format: cell-based, human; details: flow cytometry
Procedure: as §2, with “condition. Using FlowJo software, cells were visualised using forward and side scatter plots (FSC vs. SSC) and live cells were gated according to their live/dead staining. The percentage of live cells positive for AF488 signal was identified for each condition and plotted. The experiment was repeated three times and results present as the mean (+/−SD).” for “condition.”
The binding of BDB and IgG1 to IFNγ stimulated U937 cells was determined using the following methods. […]

[5] = test system: Fc receptor on IFNγ-activated U937 cells; experiment: competition of BDB and cp33 peptide binding with unlabelled human IgG1 (FACS); format: cell-based; details: 1 μM BDB or cp33; human IgG1 above approximately 10 nM
[6] = test system: IFNγ-activated U937 cells; experiment: colocalization of BDB and AF647-labelled hLys amyloid to the surface of U937 cells (FACS); format: cell-based, human; details: 1 μM BDB or cp33
Procedure: IFNγ-activated U937 cells, a human macrophage cell line, were incubated with either BDB, cp33 peptide, or vehicle in the presence or absence of Alexa Fluor™ 647-labelled hLys amyloid in order to determine if the IFNγ-activated U937 cells have increased binding of amyloid in the presence of BDB or cp33 peptide as compared to vehicle.
Specifically, hLys were labelled with the fluorescent dye alexa 647, using the Alexa Fluor™ 647 Microscale Protein Labelling Kit (Thermo Fisher Scientific) according to the manufacturer's instructions with the following modifications: after protein labelling, the solution was made up to 500 μl with PBS and the sample centrifuged at 20800 for 40 min. The supernatant was discarded and the pellet washed with PBS, resuspended in 500 μl PBS and the centrifugation repeated. The final pellet was resuspended in 100 μl of PBS.
U937 cells were cultured in RPMI 1640+2 mM Glutamine+10% v/v FCS for 48 h in the presence of […] human IFNγ. Aliquots of 5×10^5 cells were centrifuged 3 min at 300 g and resuspended in 50 μl of either 1 μM BDB or cp33 and then incubated with either 1 or 0.1 μM AF647-hLyz. The staining and FACS analysis were performed as before, this time reporting the percentage of live cells positive for both AF488-streptavidin and AF647 h-Lyz.

[7] = test system: macrophage-differentiated U937 cells; experiment: phagocytosis of pHrodo-red labelled hLys amyloid (IncuCyte); format: cell-based, human
Procedure: Macrophage-differentiated U937 cells were co-incubated with pHrodo-red labelled amyloid, BDB, cp33 peptide, or control in order to determine the amount of amyloid phagocytosed under various conditions. hLys amyloid fibrils were generated as described above and were labelled with the pHrodo Red Microscale Labeling Kit (ThermoFisher) according to the manufacturers instruction except that unincorporated label was removed from the labelled amyloid by three rounds of centrifuging at 20,000×g in a microfuge, discarding the supernatant and resuspending the amyloid pellet in PBS. U937 cells were differentiated into macrophages in the presence of […] M-CSF (Peprotech), 1 μg/ml PMA (Sigma) and […] IFNγ (Thermo Fisher Scientific) for 4 days. 8×10^5 cells/condition were centrifuged for 3 min at 300 g and resuspended in 50 μl of 1 μM BDB, 1 μM cp33, 1 μM BDB with 0.1 μM labelled amyloid, 1 μM cp33 with 0.1 μM labelled amyloid, 0.1 μM labelled amyloid or a 1:100 PBS dilution of a pHrodo Red-labelled E. coli suspension (Thermo Fisher Scientific). […]
The plates were placed in an IncuCyte instrument and settings programmed to scan both in phase contrast and the red fluorescence channel hourly for 48 h. […] A metric of Total Red Object Area (μm^2/well) was used to quantify the appearance of pHrodo red fluorescence within cells. […]

| Molecule | fluorescence in the presence of amyloid proteins [1] | binding to U937 cells treated with IFNγ versus non-activated (percentage of live cells positive for AF488 signal) [2] | binding to murine primary macrophages treated with LPS versus non-activated (percentage of live cells positive for AF488 signal) [3] | IFNg-activated U937 cells bound ([4]; BDB 0.01-5 μM, biotinylated IgG1 0.01-1 μM) | EC50 ([4]; read-out: half-maximal binding to IFNγ-activated U937 cells) | displacement from binding to IFNγ-activated U937 cells by human IgG1 [5] | cell binding with or without amyloid [6] | IFNγ-activated U937 cells binding amyloid (live cells positive for both AF488-streptavidin and AF647 h-Lyz) ([6]; 1 or 0.1 μM AF647-hLyz) | pHrodo red signal in the absence of amyloid ([7]; 1 μM BDB or 1 μM cp33, no amyloid) | phagocytosis of amyloid (pHrodo red signal, Total Red Object Area) ([7]; 1 μM BDB with 0.1 μM labelled amyloid, compared to cp33-amyloid or amyloid alone, hourly for 48 h) |
| --- | --- | --- | --- | --- | --- | --- | --- | --- | --- | --- |
| Cc1ccc2c(c1)sc(-c1ccc(N(C)C)cc1)[n+]2C.[Cl-] [Tht, Thioflavin T, reference compound] | increased fluorescence | – | – | – | – | – | – | – | – | – |
| BDB: conjugate of Compound 1 (carboxylic acid derivative of thioflavin T) added as terminal residue to biotinylated cyclic cp33 peptide derivative (SEQ ID NO:3) (AQVNSCLLLPNLLGCGDDK; not fully specified (bridges); cysteine pairing not given here; also: biotinylated, thioflavin T derivative (Compound 1) added as terminal residue, end not given here) | increased fluorescence | enhanced binding | enhanced binding | ≤ 80% | ~200 nM | displaced | show cell binding irrespective of whether amyloid is present | Up to 14.4% | did not generate a signal | enhances the phagocytosis of amyloid |
